{"source": "patent US9717727B2", "about": "“Methods of treating and preventing leukemia and other cancers of the blood and bone” (The Trustees of Columbia University in the City of New York, priority 2011, dated 2017)", "key": {"[1]": {"tested_on": "hematopoietic compartment", "assay": "Flow cytometry of hematopoietic cell populations in bone marrow (Example 11)", "type": "in vivo, mice", "experimental": "Freshly isolated bone marrow cells or spleen cells were resuspended in flow-staining buffer (PBS plus 2% FBS) and the primary conjugated antibodies were added. After 30 minutes incubation at 4° C., the cells were then washed twice before flow cytometry analysis. The following antibodies conjugated with fluorescein isothiocyanate (FITC), Allophycocyanin (APC) phycoerythrin (PE), PE-Cy7, APC-CY7, Pacific Blue, and Alexa 700 were used: Lineage cocktail (B220, CD19, IL-7R chain, CD3, DX5, Gr-1, Ter119, CD71 and CD41), B220 (6B2), CD19 (1D3), IgM (II/41), CD3 (KT31.1), CD4 (GK1.5), CD8 (53-6.7), Gr-1 (8C5), Mac1/CD11b (M1/70), Ter119, CD71 (C2), c-Kit (2B8), Sca-1 (E13-161-7), CD34 (RAM34), FcRII/III (2.4G2) or CD135/Flt-3 (all from Becton Dickinson, San Diego, Calif.).\nThe cell cycle analysis of LSK cells was determined by staining for 30 min at 37° C. with Hoechst 33342 (Molecular Probes) and pyronin Y (Sigma). Seven-color flow cytometry acquisition was performed using a LSR II flow cytometer (Becton Dickinson) and analysis using FLO-JO software (Treestar, Inc). Cells were gated for size, shape and granularity using forward and side scatter parameters. The positive populations were identified as cells that expressed specific levels of fluorescence activity above the nonspecific auto fluorescence of the isotype control. Nonspecific binding was reduced by preincubation with unconjugated anti-FcRII/III (2.4G2). For Flow sorting EL4-GFP-Luc cells were resuspended in flow staining buffer, and flow sorting was performed using FACSAria (BD). Sorted GFP positive cells were then subsequently cultured for 12 hours and injected into the mice.\nThe methods used in Example 8 to measure the various cell types were used.\nMice treated as described in Example 9 were examined."}, "[2]": {"tested_on": "EL4 cells", "assay": "Injection of EL4 cells pre-treated with LP-533401 or serotonin into syngeneic mice (Example 13)", "type": "in vivo", "details": "cells treated before injection; LP-533401 0.1 to 1-fold serum concentration, serotonin 25 to 100 μM", "experimental": "EL4 cells and WEH-3B cells, as described in Example 2, were treated with either LP-533401 or serotonin LP-533401 treatments were performed at 0.1 to 1-fold the amount equivalent to the LP-533401 serum concentration in mice treated with this compound. Serotonin was given at concentrations ranging from 25 to 100 μM, doses at which it affects the proliferation of cells expressing serotonin receptors (Kode et al. (2012); Yadav et al. (2008) Serafeim et al. (2003)).\nEL4 cells treated with LP-533401 or serotonin were then injected into syngeneic mice as described in Example 2 to monitor leukemia engraftment, as commonly described for evaluating potential direct effects of compounds on leukemia cells (Moellering et al. (2009))."}, "[3]": {"tested_on": "bone loss", "details": "in vivo; cited from earlier work"}, "[4]": {"tested_on": "serum serotonin", "assay": "Serum serotonin levels by ELISA, EL4 study (Example 9)", "type": "in vivo, mice", "details": "leukemic and non-leukemic groups; LP-533401 25 or 200 mg/kg/day oral", "experimental": "Mice were treated orally with LP-533401 (25 or 200 mg per kg of body weight per day) or vehicle. Treatments started 15 days before malignant cell injections in all sets of experiments, and continued for the indicated periods of time. LP-533401 was dissolved in polyethylene glycol (PEG) and 5% dextrose or 2.5% glucose (Sigma), and given daily by oral gavage. Mice treated with vehicle were administered, in the same way as LP533401, a solution of PEG and 5% dextrose or 2.5% glucose, daily, by oral gavage. For measurements of serum serotonin levels, mice were briefly exposed to Isoflurane (Baxter) for 30 seconds and blood was collected by cardiac puncture. Similar volumes of blood were collected from different animals for consistency in the clotting times. Serum collection from all mice was done between 9:00 am and 12:00 pm. Blood was allowed to clot on ice for 5 minutes before centrifugation at maximum speed at 4° C. for 10 minutes. The serum supernatant was removed, snap frozen and stored at −80° C. for further analysis. Serum serotonin levels were quantified by ELISA (Serotonin kit, Fitzgerald) according to manufacturer's instructions."}, "[5]": {"target": "T1, Tph2 (Homo sapiens, UniProt Q8IWU9)", "T1 sequence (Q8IWU9 1-490)": "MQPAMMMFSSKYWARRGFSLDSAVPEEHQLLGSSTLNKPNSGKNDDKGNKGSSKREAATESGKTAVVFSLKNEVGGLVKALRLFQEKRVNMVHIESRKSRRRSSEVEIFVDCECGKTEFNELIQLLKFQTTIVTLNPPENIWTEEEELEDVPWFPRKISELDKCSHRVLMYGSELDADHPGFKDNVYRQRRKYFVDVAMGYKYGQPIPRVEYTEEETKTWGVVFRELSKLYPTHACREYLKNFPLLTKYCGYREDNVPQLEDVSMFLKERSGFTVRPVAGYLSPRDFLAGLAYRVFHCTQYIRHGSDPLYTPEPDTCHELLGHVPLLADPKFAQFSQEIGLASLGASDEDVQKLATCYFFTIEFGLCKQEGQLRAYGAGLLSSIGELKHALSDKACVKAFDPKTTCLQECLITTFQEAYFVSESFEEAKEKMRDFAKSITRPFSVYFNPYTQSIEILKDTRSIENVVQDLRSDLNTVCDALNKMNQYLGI", "details": "in vitro; cited from earlier work"}}}
{"smiles": "Nc1nc(OC(c2ccc(-c3cccc(F)c3)cc2)C(F)(F)F)cc(-c2ccc(C[C@H](N)C(=O)O)cc2)n1", "note": "(some centres unmarked) [LP-533401]", "values": [{"measurement": "numbers of LSK FLT3+ cells", "setting": "[1]; healthy and leukemic mice", "result": "reduced the numbers"}, {"measurement": "B-lymphopoiesis", "setting": "[1]; leukemic animals", "result": "did not affect"}, {"measurement": "GMP and CMP populations", "setting": "[1]; leukemic mice", "result": "further suppressed their frequencies"}, {"measurement": "LSK FLT3+ lymphoid progenitor cell subset (percentage)", "setting": "[1]; leukemic mice", "result": "not affected"}, {"measurement": "MEP subsets", "setting": "[1]; leukemic mice", "result": "not affected"}, {"measurement": "TER119+ erythroid progenitor cells", "setting": "[1]; leukemic mice", "result": "increased"}, {"measurement": "increase in CD3+ cells", "setting": "[1]; leukemic mice", "result": "prevented the increase"}, {"measurement": "increase in CD11b+GR1+ myeloid cells", "setting": "[1]; leukemic mice", "result": "limited the increase"}, {"measurement": "leukemia-induced increase of LSK cells in the bone marrow", "setting": "[1]; leukemic mice", "result": "hampered"}, {"measurement": "leukemia-reduced total bone marrow cellularity", "setting": "[1]; leukemic mice", "result": "not altered"}, {"measurement": "CMPs and MEPs", "setting": "[1]; non-leukemic mice", "result": "not affected"}, {"measurement": "GMPs and more mature myeloid cells", "setting": "[1]; non-leukemic mice", "result": "decreased"}, {"measurement": "LSK cells in the bone marrow compared to wild-type", "setting": "[1]; non-leukemic mice", "result": "decrease"}, {"measurement": "Ter119+ erythroid cells", "setting": "[1]; non-leukemic mice", "result": "increased"}, {"measurement": "lymphoid lineage, including B and T cells", "setting": "[1]; non-leukemic mice", "result": "no effect"}, {"measurement": "total bone marrow cellularity", "setting": "[1]; non-leukemic mice", "result": "did not affect"}, {"measurement": "leukemia outcome (burden and lethality) after injection of pre-treated EL4 cells", "setting": "[2]", "result": "neither of the two treatments altered leukemia outcome"}, {"measurement": "effect against bone loss", "setting": "[3]", "result": "effective against bone loss"}, {"measurement": "decrease in serum serotonin levels compared to vehicle-treated animals", "setting": "[4]", "result": 30, "unit": "%"}, {"measurement": "inhibition of Tph2 relative to Tph1", "setting": "[5]", "result": "inhibits Tph2 as effectively as Tph1"}]}
